# System: adult subjects with moderate to severe AA
# Assay: Phase III trial: Hair Satisfaction Patient Reported Outcome (SPRO)
# Assay type: in vivo, human
# Set-up: key to SPRO responders, treatment difference: Common Risk Difference (Mantel-Haenszel): difference in proportion of responders (satisfied or very satisfied)
# Conditions: for SPRO Responders: No / SPRO Responders: Yes ('Very satisfied' or 'Satisfied') / SPRO Responses: 1 = Very Satisfied / SPRO Responses: 2 = Satisfied / SPRO Responses: 3 = Neither Satisfied Nor Dissatisfied / SPRO Responses: 4 = Dissatisfied / SPRO Responses: 5 = Very Dissatisfied / percentage of subjects with a ≥2 point change from baseline in SPRO / proportion of SPRO responders (very satisfied or satisfied) / percentage of SPRO responders: non-missing data; for SPRO responders, treatment difference: Common Risk Difference (Mantel-Haenszel): MI with MAR assumption
# Source text: The SPRO is a single-item questionnaire answered by the subject and designed to measure how satisfied Alopecia Areata subjects are with their hair at the time of the assessment. Subjects answer questions on a scale of 1 to 5, representing “Very satisfied” to “Very dissatisfied.” Satisfaction categories 1-5 of the scale were defined as follows: 1=“Very Satisfied”; 2=“Satisfied”; 3=“Neither Satisfied nor Dissatisfied”; 4=Dissatisfied”; and 5=“Very Dissatisfied”.
# The results of the SPRO was analyzed in three different ways: 1) the percentage of responders, 2) the change from baseline, and 3) the percentage of subjects achieving a ≥2.0 point change from baseline.
# A Phase III trial was conducted to assess the efficacy and safety of CTP-543 in adult subjects with moderate to severe AA. Approximately 440 adult male and female subjects 18 to 65 years of age, inclusive, with moderate to severe AA participated in the study. Subjects with definitive diagnosis of AA, and at least 50% hair loss, as defined by a SALT score ≥50, who met all of the inclusion criteria and none of the exclusion criteria participated in the study.
# The Screening Period lasted up to 28 days prior to initiation of study drug. […] Randomization was stratified by scalp hair loss into 1 of the following 2 categories: 1) partial scalp hair loss (SALT ≥50 and <95), 2) complete or near complete scalp hair loss (SALT ≥95).
# The key secondary efficacy endpoints were the percentage of responders (defined as “satisfied” or “very satisfied”) on the Hair Satisfaction Patient Reported Outcome (SPRO) scale at Week 24, 20, 16, 12, and 8.
# Additional secondary efficacy endpoints included the following: • Relative change in SALT scores from baseline at Weeks 4, 8, 12, 16, 20, and 24. • Percentage of responders (defined as “much improved” or “very much improved”) using the Clinical Global Impression of Improvement (CGI-I) at Weeks 12, 16, 20, and 24. • Percentage of responders (defined as “much improved” or “very much improved”) using the Patient Global Impression of Improvement (PGI-I) at Weeks 12, 16, 20, and 24. • Change from baseline in the Clinical Global Impression of Severity (CGI-S) at Weeks 12, 16, 20, and 24. • Change from baseline in the Patient Global Impression of Severity (PGI-S) at Weeks 12, 16, 20, and 24. • Change from baseline on the Brigham Eyebrow Tool for Alopecia (BETA) score at Weeks 12 and 24. • Change from baseline on the Brigham Eyelash Tool for Alopecia (BELA) score at Weeks 12 and 24. • Percentage of subjects achieving at least a 75% relative reduction in SALT score from baseline at Weeks 12 and 24. • Percentage of subjects achieving at least a 90% relative reduction in SALT score from baseline at Weeks 12 and 24. • Percentage of responders (defined as “satisfied” or “very satisfied”) on the SPRO scale at Weeks 12, 16, and 20. • Change from baseline in the SPRO scale at Weeks 12, 16, 20, and 24. • Percentage of subjects achieving a ≥2-point change from baseline in the SPRO scale at Weeks 12, 16, 20, and 24. • Change from baseline on the individual items of the Hair Quality Patient Reported Outcome (QPRO) scale at Weeks 12, 16, 20, and 24. • Change from baseline in the depression scale of the Hospital Anxiety and Depression Scale (HADS) at Week 24. • Change from baseline in the anxiety scale of the HADS at Week 24. • Percentage of subjects achieving an absolute SALT score of ≤20 at Week 4. • Percentage of subjects achieving an absolute SALT score of ≤10 at Week 24 […]
structure (smiles),measurement,setting,value
"[2H]C1([2H])C([C@@H](CC#N)n2cc(-c3ncnc4[nH]ccc34)cn2)C([2H])([2H])C([2H])([2H])C1([2H])[2H] [CTP-543, (R)-3-(4-(7H-pyrrolo[2,3-d]pyrimidin-4-yl)-1H-pyrazol-1-yl)-3-(cyclopentyl-2,2,3,3,4,4,5,5-d8) propanenitrile]","SPRO score, LS mean change from baseline","Week 12, 8 mg BID",−1.6
same,"SPRO score, LS mean change from baseline","Week 12, 12 mg BID",−1.7
same,"SPRO score, LS mean change from baseline","Week 16, 8 mg BID",−1.6
same,"SPRO score, LS mean change from baseline","Week 16, 12 mg BID",−1.7
same,"SPRO score, LS mean change from baseline","Week 20, 8 mg BID",−1.5
same,"SPRO score, LS mean change from baseline","Week 20, 12 mg BID",−1.8
same,"SPRO score, LS mean change from baseline","Week 24, 8 mg BID",−1.6
same,SPRO Responders: No,"Week 24, 8 mg BID (N = 249)",122 (53.5) n (%)
same,SPRO Responders: Yes ('Very satisfied' or 'Satisfied'),"Week 24, 8 mg BID (N = 249)",106 (46.5) n (%)
same,SPRO Responses: 1 = Very Satisfied,"Week 24, 8 mg BID (N = 249)",40 (17.5) n (%)
same,SPRO Responses: 2 = Satisfied,"Week 24, 8 mg BID (N = 249)",66 (38.9) n (%)
same,SPRO Responses: 3 = Neither Satisfied Nor Dissatisfied,"Week 24, 8 mg BID (N = 249)",34 (14.9) n (%)
same,SPRO Responses: 4 = Dissatisfied,"Week 24, 8 mg BID (N = 249)",34 (14.9) n (%)
same,SPRO Responses: 5 = Very Dissatisfied,"Week 24, 8 mg BID (N = 249)",54 (23.7) n (%)
same,"SPRO responders, treatment difference: Common Risk Difference (Mantel-Haenszel)","Week 24, 8 mg BID compared to Placebo",0.45
same,percentage of subjects with a ≥2 point change from baseline in SPRO,"Week 24, 8 mg BID",52.6%
same,proportion of SPRO responders (very satisfied or satisfied),"Week 24, 8 mg BID",46.5%
same,"SPRO score, LS mean change from baseline","Week 24, 12 mg BID",−1.8
same,SPRO Responders: No,"Week 24, 12 mg BID (N = 127)",58 (48.3) n (%)
same,SPRO Responders: Yes ('Very satisfied' or 'Satisfied'),"Week 24, 12 mg BID (N = 127)",62 (51.7) n (%)
same,SPRO Responses: 1 = Very Satisfied,"Week 24, 12 mg BID (N = 127)",24 (20.0) n (%)
same,SPRO Responses: 2 = Satisfied,"Week 24, 12 mg BID (N = 127)",38 (31.7) n (%)
same,SPRO Responses: 3 = Neither Satisfied Nor Dissatisfied,"Week 24, 12 mg BID (N = 127)",23 (19.2) n (%)
same,SPRO Responses: 4 = Dissatisfied,"Week 24, 12 mg BID (N = 127)",18 (15.0) n (%)
same,SPRO Responses: 5 = Very Dissatisfied,"Week 24, 12 mg BID (N = 127)",17 (14.2) n (%)
same,"SPRO responders, treatment difference: Common Risk Difference (Mantel-Haenszel)","Week 24, 12 mg BID compared to Placebo",0.49
same,percentage of subjects with a ≥2 point change from baseline in SPRO,"Week 24, 12 mg BID",61.7%
same,proportion of SPRO responders (very satisfied or satisfied),"Week 24, 12 mg BID",51.7
same,percentage of SPRO responders,"week 12, 8 mg BID",43.2%
same,percentage of subjects with a ≥2 point change from baseline in SPRO,"week 12, 8 mg BID",50.4%
same,percentage of SPRO responders,"week 12, 12 mg BID",41.0%
same,percentage of subjects with a ≥2 point change from baseline in SPRO,"week 12, 12 mg BID",59.0%
same,percentage of SPRO responders,"week 16, 8 mg BID",41.0%
same,percentage of subjects with a ≥2 point change from baseline in SPRO,"week 16, 8 mg BID",52.6%
same,percentage of SPRO responders,"week 16, 12 mg BID",45.1%
same,percentage of subjects with a ≥2 point change from baseline in SPRO,"week 16, 12 mg BID",57.4%
same,percentage of SPRO responders,"week 20, 8 mg BID",40.1%
same,percentage of subjects with a ≥2 point change from baseline in SPRO,"week 20, 8 mg BID",50.4%
same,percentage of SPRO responders,"week 20, 12 mg BID",52.5%
same,percentage of subjects with a ≥2 point change from baseline in SPRO,"week 20, 12 mg BID",63.6%

# — US20250114367A1, “METHOD OF TREATING HAIR LOSS DISORDERS” (Sun Pharmaceutical Industries, Inc., priority 2023, published 2025)
